Where “and” joins values, the source holds several entries; their conditions need not be identical. Identical values can stand only once. Toxic doses and inconclusive results are not listed.

The test system of this test is BDF1 mice, B16 melanoma ip, median survival T/C. As to the kind of experiment: NCI In Vivo Anticancer Drug Screen. Data for tumor model B16 Melanoma (intraperitoneal) in B6D2F1 (BDF1) mice. To be noted: endpoint: median survival time, higher = longer survival. The protocol:
The antitumor activity of compounds was measured in mice bearing transplantable tumors. Survival or tumor size were measured and the results are expressed as the measurement made in the treated group (T) divided by the measurement made in the vehicle treated control group (C). The tumor model used in this assay is B16 Melanoma (intraperitoneal) in B6D2F1 (BDF1) mice

Setting [1] is: dose: 1.56 mg/kg/injection, schedule: Q01DX009 (ip), vehicle: saline with Tween-80.
The mark [2] stands for this setting: dose: 3.12 mg/kg/injection, schedule: Q01DX009 (ip), vehicle: saline with Tween-80.
The mark [3] stands for this setting: dose: 6.25 mg/kg/injection, schedule: Q01DX009 (ip), vehicle: saline with Tween-80.
Setting [4] is: dose: 100.0 mg/kg/injection, schedule: Q01DX009 (ip), vehicle: saline.
Setting [5] is: dose: 200.0 mg/kg/injection, schedule: Q01DX009 (ip), vehicle: saline.
Where [6] appears, read: dose: 50.0 mg/kg/injection, schedule: Q01DX009 (ip), vehicle: Klucel (hydroxypropylcellulose) (HPC).
[7] abbreviates: dose: 100.0 mg/kg/injection, schedule: Q01DX009 (ip), vehicle: Klucel (hydroxypropylcellulose) (HPC).
The mark [8] stands for this setting: dose: 6.25 mg/kg/injection, schedule: Q01DX009 (ip), vehicle: saline.
The mark [9] stands for this setting: dose: 12.5 mg/kg/injection, schedule: Q01DX009 (ip), vehicle: saline.
[10] abbreviates: dose: 25.0 mg/kg/injection, schedule: Q01DX009 (ip), vehicle: saline.
Setting [11] is: dose: 50.0 mg/kg/injection, schedule: Q01DX009 (ip), vehicle: saline.
Where [12] appears, read: dose: 100.0 mg/kg/injection, schedule: Q01DX009 (ip), vehicle: saline with Tween-80.
Setting [13] is: dose: 200.0 mg/kg/injection, schedule: Q01DX009 (ip), vehicle: saline with Tween-80.
[14] abbreviates: dose: 12.5 mg/kg/injection, schedule: Q01DX009 (ip), vehicle: saline with Tween-80.
Where [15] appears, read: dose: 25.0 mg/kg/injection, schedule: Q01DX009 (ip), vehicle: saline with Tween-80.
The mark [16] stands for this setting: dose: 50.0 mg/kg/injection, schedule: Q01DX009 (ip), vehicle: saline with Tween-80.
Where [17] appears, read: dose: 12.5 mg/kg/injection, schedule: Q01DX009 (ip), vehicle: Klucel (hydroxypropylcellulose) (HPC).
[18] abbreviates: dose: 25.0 mg/kg/injection, schedule: Q01DX009 (ip), vehicle: Klucel (hydroxypropylcellulose) (HPC).
The mark [19] stands for this setting: dose: 200.0 mg/kg/injection, schedule: Q01DX009 (ip), vehicle: Klucel (hydroxypropylcellulose) (HPC).
Setting [20] is: dose: 400.0 mg/kg/injection, schedule: Q01DX009 (ip), vehicle: Klucel (hydroxypropylcellulose) (HPC).

Turning to `CC(=O)OC1COC(NC(=O)N(CCCl)N=O)C(OC(C)=O)C1OC(C)=O` (stereo unspecified), the T/C is, setting by setting: (dose: 0.18 mg/kg/injection, schedule: Q01DX009 (ip), vehicle: saline with Tween-80) 106 % of control; (dose: 0.2 mg/kg/injection, schedule: Q01DX009 (ip), vehicle: saline with Tween-80) 155 % of control; (dose: 0.37 mg/kg/injection, schedule: Q01DX009 (ip), vehicle: saline with Tween-80) 118 % of control; (dose: 0.39 mg/kg/injection, schedule: Q01DX009 (ip), vehicle: saline with Tween-80) 114 % of control; (dose: 1.5 mg/kg/injection, schedule: Q01DX009 (ip), vehicle: saline with Tween-80) 168 % of control; under setting [1], 170 % of control. Further, the T/C (dose: 3.0 mg/kg/injection, schedule: Q01DX009 (ip), vehicle: saline with Tween-80) is 173 % of control; the T/C under setting [2] is 209 % of control; the T/C (dose: 6.0 mg/kg/injection, schedule: Q01DX009 (ip), vehicle: saline with Tween-80) was 162 % of control; the T/C under setting [3] was 190 % of control.
For the compound `COC(=O)C(N)CSCc1ccccc1` (stereo unspecified), the T/C runs as follows: under setting [4], 95 % of control; under setting [5], 106 % of control.
Consider `CCCCCCCCC1CCC(N)CC1` (stereo unspecified), for which the T/C is 93 % of control under setting [6] and 86 % of control under setting [7].
For the compound `C#CC(O)(/C=C\Cl)CC` (stereo unspecified), the T/C was 110 % of control under setting [8]; 102 % of control under setting [9]; 100 % of control under setting [10]; 110 % of control under setting [11]; 115 % of control under setting [4].
`Cc1ccc2cc3c(ccc4ccccc43)c3c2c1CC3`: the T/C was 124 % of control under setting [11]; 120 % of control under setting [12]; 110 % of control (dose: 100.0 mg/kg/injection, schedule: Q04DX003 (ip), vehicle: saline with Tween-80); 114 % of control under setting [13]; 110 % of control (dose: 200.0 mg/kg/injection, schedule: Q04DX003 (ip), vehicle: saline with Tween-80); 115 % of control (dose: 400.0 mg/kg/injection, schedule: Q04DX003 (ip), vehicle: saline with Tween-80).
Consider `Cc1cccc(/C=N\OCCc2ccccc2)n1`, for which the T/C by setting is: under setting [12], 97 % of control; under setting [13], 93 % of control.
`O=C(c1cccc(C(=O)n2c3c(c4ccccc42)CCCC3)c1)n1c2c(c3ccccc31)CCCC2`: the T/C was 94 % of control under setting [3], 102 % of control under setting [14] and 100 % of control under setting [15].
Take `COC(=O)c1cc([N+](=O)[O-])cc([N+](=O)[O-])c1Br`: the T/C is 95 % of control (dose: 0.37 mg/kg/injection, schedule: Q01DX009 (ip), vehicle: Klucel (hydroxypropylcellulose) (HPC)); 101 % of control (dose: 0.75 mg/kg/injection, schedule: Q01DX009 (ip), vehicle: Klucel (hydroxypropylcellulose) (HPC)); 88 % of control (dose: 1.5 mg/kg/injection, schedule: Q01DX009 (ip), vehicle: Klucel (hydroxypropylcellulose) (HPC)).
Consider `C=CC(=O)NCNC(=O)C=C`, for which the T/C is 104 % of control under setting [14]; 110 % of control under setting [9]; 99 % of control under setting [15]; 102 % of control under setting [10]; 103 % of control under setting [16]; 109 % of control under setting [11]. Besides, the T/C was 107 % of control under setting [12] and 102 % of control under setting [4].
`O=C(NCCCl)NCCCl`: the T/C reads like this: (dose: 5.0 mg/kg/injection, schedule: Q01DX009 (ip), vehicle: Klucel (hydroxypropylcellulose) (HPC)) 94 % of control; (dose: 10.0 mg/kg/injection, schedule: Q01DX009 (ip), vehicle: Klucel (hydroxypropylcellulose) (HPC)) 102 % of control; under setting [14], 95 % of control; (dose: 20.0 mg/kg/injection, schedule: Q01DX009 (ip), vehicle: Klucel (hydroxypropylcellulose) (HPC)) 88 % of control; under setting [15], 95 % of control; (dose: 40.0 mg/kg/injection, schedule: Q01DX009 (ip), vehicle: Klucel (hydroxypropylcellulose) (HPC)) 91 % of control. For the same compound, the T/C reads like this: under setting [16], 100 % of control; (dose: 80.0 mg/kg/injection, schedule: Q01DX009 (ip), vehicle: Klucel (hydroxypropylcellulose) (HPC)) 102 % of control; (dose: 160.0 mg/kg/injection, schedule: Q01DX009 (ip), vehicle: Klucel (hydroxypropylcellulose) (HPC)) 94 % of control; under setting [13], 95 % of control; (dose: 320.0 mg/kg/injection, schedule: Q01DX009 (ip), vehicle: Klucel (hydroxypropylcellulose) (HPC)) 91 % of control; (dose: 400.0 mg/kg/injection, schedule: Q01DX009 (ip), vehicle: saline with Tween-80) 102 % of control.
Regarding `CCOc1ccc(Br)cc1/C=N\N=C\c1cc(Br)ccc1OCC`, the T/C reads like this: under setting [17], 100 % of control; under setting [18], 88 % of control and 105 % of control; under setting [6], 89 % of control and 94 % of control.
Turning to `CCCN(C)N=Nc1ccccc1C(=O)O`, the T/C is 100 % of control under setting [1]; 103 % of control under setting [2]; 111 % of control (dose: 3.13 mg/kg/injection, schedule: Q01DX009 (ip), vehicle: saline with Tween-80); 116 % of control (dose: 6.25 mg/kg/injection, schedule: Q01DX009 (ip), vehicle: Klucel (hydroxypropylcellulose) (HPC)); 101 % of control and 102 % of control under setting [3]; 110 % of control under setting [17]. The T/C under setting [14] was 98 % of control and 102 % of control and 105 % of control; the T/C under setting [18] was 104 % of control; the T/C under setting [15] was 102 % of control and 107 % of control and 115 % of control; the T/C under setting [6] was 107 % of control; the T/C under setting [16] is 100 % of control.
For the compound `OC1COC(c2ccco2)OC1` (stereo unspecified) (tested in a mixture with another compound), the T/C is 100 % of control under setting [6], 100 % of control under setting [7] and 106 % of control under setting [19].
In the case of `CC(C)NNC(=O)C(C)O` (stereo unspecified), the T/C was 118 % of control under setting [10], 102 % of control under setting [11] and 102 % of control under setting [5].
For `O=C1N[C@H]2[C@H](CS[C@H]2CCCCC(=O)N(CCP(c2ccccc2)c2ccccc2)CCP(c2ccccc2)c2ccccc2)N1`, the T/C was 112 % of control under setting [18], 120 % of control under setting [6], 123 % of control under setting [19] and 108 % of control under setting [20].
With `C=CCC(C(C)=O)C(=O)OCC` (stereo unspecified), the T/C under setting [7] is 106 % of control, the T/C under setting [19] is 110 % of control and the T/C under setting [20] was 110 % of control.
As for `O=C1C(N2CC2)=C(N2CCCC(O)C2)C(=O)C(N2CC2)=C1N1CCCC(O)C1` (stereo unspecified), the T/C by setting is: (dose: 0.25 mg/kg/injection, schedule: Q01DX009 (ip), vehicle: saline) 113 % of control; (dose: 0.5 mg/kg/injection, schedule: Q01DX009 (ip), vehicle: saline) 120 % of control.
For `FC(F)(F)c1ccc2c(c1)N(CCCN1CCN(CCC3OCCCO3)CC1)c1ccccc1S2`, the T/C (dose: 0.78 mg/kg/injection, schedule: Q01DX009 (ip), vehicle: saline) is 116 % of control; the T/C (dose: 1.56 mg/kg/injection, schedule: Q01DX009 (ip), vehicle: saline) is 118 % of control; the T/C (dose: 3.12 mg/kg/injection, schedule: Q01DX009 (ip), vehicle: saline) was 90 % of control; the T/C under setting [8] is 115 % of control.
As to `O=c1cccccc1O.O=c1cccccc1O.[Cu]`, the T/C is 102 % of control (dose: 0.39 mg/kg/injection, schedule: Q01DX009 (ip), vehicle: Klucel (hydroxypropylcellulose) (HPC)) and 92 % of control (dose: 0.78 mg/kg/injection, schedule: Q01DX009 (ip), vehicle: Klucel (hydroxypropylcellulose) (HPC)).
Turning to `CCCCCCCCC(=O)OCCNC(=O)C(C)OC(=O)CCCCCCCC` (stereo unspecified), the T/C reads like this: under setting [18], 102 % of control; under setting [6], 103 % of control; under setting [7], 92 % of control.
